From the METLIN SMRT retention time set (Domingo-Almenara et al. 2019)

Assay: gradient 5% acetonitrile 3 min, to 50% in 2 min, to 85% in 15 min, held 3 min, 100 µL/min
Conditions: column: Zorbax Extend-C18 2.1 x 50 mm; eluents: water / acetonitrile, 0.1% formic acid
How it was run: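 The mobile phases were water and acetonitrile, each with 0.1% formic acid, pumped at 100 μL/min through a Zorbax Extend-C18 column (2.1 × 50 mm, 1.8 μm). Pure standards were injected as mixtures of ~100 molecules and detected by a quadrupole time-of-flight mass spectrometer in positive and negative ionization mode. Retention time came from computationally picked adduct peaks, each inspected by hand.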

SMILES | RP-LC retention time [s]
CC(C)c1nnc(NC(=O)C2CC(=O)N(CCc3c[nH]c4ccc(F)cc34)C2)s1 (centres undefined) | 746
Cc1nc(N2CCN(C)CC2)cc(N2CCN(C(=O)c3ccc(Br)o3)CC2)n1 | 570
CCN(C(=O)C1CCN(S(=O)(=O)c2ccc3c(c2)sc(=O)n3CC)CC1)c1ccccc1 | 942
C=CCNC(=O)N1CCCN(C2=NS(=O)(=O)C(c3ccc(C)c(C)c3)=C2C)CC1 | 770
O=C(COc1ccccc1)Nc1ccc(-c2nc(-c3ccc(Cl)cc3)no2)cc1 | 1280
c1cncc(-c2noc(CCC3CCCN(C4CCCCC4)C3)n2)c1 (centres undefined) | 624
Cn1nccc1C(=O)Nc1c(-c2ccccc2)nc2sc(N3CCCCC3)nn12 | 678
Cc1c(S(=O)(=O)CCNC(=O)Nc2ccc3c(c2)OCO3)c2ccccc2n1C | 729
CCOc1ccc(-c2noc(CN3C(=O)C(C)Oc4ccccc43)n2)cc1OC (centres undefined) | 1040
Cc1cc(N(C)C)n2nc(CN3CCCC(C)C3)nc2n1 (centres undefined) | 536
Cc1ccccc1CN1C(=O)CN(S(C)(=O)=O)CC1(C)C(=O)NCc1ccccc1 (centres undefined) | 838
Cc1ccc(N2CCN(S(=O)(=O)c3cc4c(s3)CCN(C(=O)C3CC3)C4)CC2)cc1 | 1020
Cc1ccc(C(=O)N2CCCC(COc3ccc(C(=O)N4CCCC4)cc3)C2)cc1C (centres undefined) | 940
COc1cccc(-n2c(=O)c(C(=O)Nc3ccc(F)c(Cl)c3)c(O)c3cccnc32)c1 | 1250
COCCNC(=O)c1c(C)sc2ccn(Cc3ccc(F)cc3)c(=O)c12 | 749
Cc1ccc(S(=O)(=O)N2C(=O)CCC2C(=O)NC2CCCCCCC2)cc1 (centres undefined) | 1010
CCc1cc(=O)n(CC(=O)N2CCN(c3ccc(F)cc3)CC2)c(N2CCOCC2)n1 | 720
O=C(c1cncnc1)N1CCCn2ccnc2C1C1CCCC1 (centres undefined) | 572
O=C(c1ccsc1)N1CCn2c(nnc2-c2ccccc2)C1 | 611
O=C(Nc1ccc(N2CCOCC2)cc1)C1CN(S(=O)(=O)C2CC2)CC12CCCCC2 (centres undefined) | 812
Cc1cc(OC(C)C(=O)N2CCC3(O)CCCCC3C2)c2c3c(c(=O)oc2c1)CCC3 (centres undefined) | 820
COc1ccccc1NC(=O)Cn1cnc2nc(N3CCCC(C(=O)NC4CC4)C3)sc2c1=O (centres undefined) | 681
COc1ccc(Cn2nc3ccc(S(=O)(=O)N4CCOCC4)cn3c2=O)cc1F | 811

SMILES | RP-LC retention time [s]
CCCn1cc(CCNS(=O)(=O)c2ccccc2F)c2cccnc21 | 820
COc1cc(NC(=O)C2CCCN(c3nc4ccccc4nc3OC)C2)c(OC)cc1Cl (centres undefined) | 1290
COc1ccc(NC(=O)CN2CCc3[nH]c4ccc(OC)cc4c(=O)c3C2)c(OC)c1 | 609
COc1cccc(C2Cn3nnc(-c4nc(-c5ccsc5)no4)c3CO2)c1 (centres undefined) | 1070
COc1ccc(C2(C(=O)N3CC(N(Cc4ccncc4)S(C)(=O)=O)C3)CC2)cc1 | 613
CC(C)n1c(=O)c(NCc2ccc(F)cc2)nc2ccncc21 | 669
Cc1ccc(NC(=O)c2cc(C3CC3)n3nccc3n2)c(F)c1 | 1150
COc1cc(NC(=O)Cn2ccc3sc(C)cc3c2=O)cc(OC)c1 | 795
COC(=O)c1ncn2c1C(=O)N(c1ccc(C)cc1)C(C)(C(=O)NCc1ccccc1)C2 (centres undefined) | 692
COc1ccc2c(c1)C1(CCN(S(=O)(=O)c3cccs3)C1)C(=O)N2 (centres undefined) | 790
CCc1ccccc1S(=O)(=O)N1CC=C(c2cn(C)c3ncccc23)CC1 | 1090
CCOc1cc(CN2CCn3c(nn(CC4CC4)c3=O)C2)ccc1O | 606
Clc1ccc2nc(-c3cccc(Br)c3)c(Nc3ccc4c(c3)OCCO4)n2c1 | 972
COc1ccc(Nc2c(C(=O)N3CCC(C)CC3)cnc3nc(C)ccc23)cc1OC | 629
CC(C)NC(=O)c1cc2c(s1)N(CC1CC1)CCCC2 | 1080
CNC(=O)c1cc(NC(=O)C2CCC2)cc2nc(C)ccc12 | 558
Cc1cc(C)nc(N2CCN(c3c4c(nc5c(-c6ccccc6)c(C)nn35)CCC4)CC2)n1 | 1210
Cc1cc(-c2csc(S(=O)(=O)N3CCN(CCOc4ccc(Cl)cc4)CC3)c2)on1 | 760
O=C(Cn1c(=O)c2cccn2c2ccc(F)cc21)NCc1cccc(Br)c1 | 903
CCc1ccccc1NC(=O)Cn1c(N)nc(C(C)C)cc1=O | 638
Cc1cnc(C(=O)N2CCOCCNC(=O)[C@@H]3CCC[C@@H]32)cn1 | 599
Cc1cc(OCC(=O)N2CCN(c3ccccn3)CC2)nc2c1c(C)nn2-c1ccccc1 | 693
CCNC(=O)N1CCc2c([nH]c3ccccc23)C12C(=O)N(C)c1ccc(Br)cc12 (centres undefined) | 857

SMILES | RP-LC retention time [s]
COC(=O)c1ccc(NC(=O)CSc2cc(N3CCN(c4ccccc4OC)CC3)ncn2)cc1 | 970
CCCN1CCN(C(=O)CN2C(=O)C3CCCCN3c3ccc(S(=O)(=O)N(C)C)cc32)CC1 (centres undefined) | 628
CCN1CCN(C2CCN(C(=O)c3cc(F)ccc3Cl)CC2)C1=O | 705
CN(C)c1ccc(-c2nc3ncc(Cl)c(N4CCN(CC(=O)Nc5nccs5)CC4)c3[nH]2)cc1 | 704
COc1ccc(OC)c(NC(=O)c2cc3c(=O)n(CC(C)C)c4ccccc4n3n2)c1 | 1240
O=C(c1nc(Nc2ccc(F)cc2)c2ccccc2n1)N1CCCCCC1 | 845
CCOC(=O)C(NC(=O)C1CCCN1C(=O)OCc1ccccc1)C(=O)OCC (centres undefined) | 855
CCCNS(=O)(=O)c1cc2n(c1)CCCN(C(C)C)C2=O | 678
CC1(C(=O)NCc2cc(F)ccc2F)CCCCC(=O)N1 (centres undefined) | 674
O=C1CCC(c2nc(-c3ccc4c(c3)OCO4)no2)=NN1Cc1ccccc1 | 1050
CCC(C)(C)NC(=O)CCNc1c(-c2ccc(F)cc2)nc2cnccn12 | 754
Cc1nn(C(C)C(=O)NCCCN(C)C2CCCCC2)c(=O)c2c(C)n(-c3ccccc3)nc12 (centres undefined) | 675
O=C(CCc1cn(-c2ccccc2)nc1-c1ccc2c(c1)OCO2)NCCc1ccco1 | 1100
O=C(C1CCN(c2cc(N3CCCCC3)ncn2)CC1)N1CCCCC1 | 652
O=C(Nc1ccc2c(c1)OCCO2)C1CCCN(C(=O)c2ccc(Cl)cc2)C1 (centres undefined) | 815
Cc1ccccc1NC(=O)Cc1cccn1-c1ccc(Cl)cc1 | 1040
Cc1ccc(-c2nccn3cc(C(=O)NC(C)C)nc23)cc1 | 883
Clc1nnc(N2CCSCC2)c2ccccc12 | 845
Cc1noc(C)c1-c1ccc(S(=O)(=O)Nc2cccc(Cl)c2)cc1 | 966
CCCCN1CCN(C(=O)c2cc(-c3ccncc3)cn2Cc2ccccc2C)CC1 | 576
CC(C)NC(=O)c1ccc2c(c1)NC(=O)C1CCCCN21 (centres undefined) | 692
O=C(Nc1nc(-c2cc([N+](=O)[O-])cs2)cs1)C1=COCCO1 | 829
CCCn1cc(S(=O)(=O)NCc2ccccc2Cl)c2cccnc21 | 912

SMILES | RP-LC retention time [s]
O=c1c2nc(-c3cccc(Cl)c3)cn2ccn1-c1cccc(F)c1 | 871
CC(=O)Nc1onc(C)c1-c1ccc(C)c(S(=O)(=O)NCc2ccc(Br)cc2)c1 | 870
COc1cc(NC(=O)Cn2c(=O)nc(N3CCCC(C)C3)c3ccccc32)cc(OC)c1 (centres undefined) | 838
COc1ccc(S(=O)(=O)N2CCN=C2SCc2cccnc2)cc1 | 594
CCS(=O)(=O)N1C[C@@H](COc2ccncc2)[C@H](c2ccccn2)C1 | 512
COc1ccc(-c2noc(C3(NC(=O)c4cccc(C#N)c4)CCCCC3)n2)cc1 | 1110
CCCNC(=O)c1nc2cc(C)c(C)cc2n(C)c1=O | 747
Cc1sc(-c2cc(C(F)(F)F)on2)cc1S(=O)(=O)N1CCCCC1 | 1210
COCC(=O)N(CC(=O)N1CCc2sccc2C1COc1ccc(Cl)c(C)c1)C1CC1 (centres undefined) | 960
Cc1ccc(CNC(=O)NC2CCN(C(=O)N3C[C@H]4C[C@H](C3)[C@H]3CCCC(=O)N3C4)CC2)cc1 | 681
COc1cccc(C(=O)N2CCC3(CC2)NC(=O)c2ccc(F)cc2N3C)c1 | 752
CO[C@H]1C(=O)N(C2CCN(C(=O)Nc3ccc4c(c3)OCCO4)CC2)[C@H]1c1ccncc1 | 582
COc1ccc(-n2cc(C(=O)Nc3ccc(SC)cc3)nn2)cc1 | 966
Cc1ccc(-c2nc(CCN(C)C(=O)Nc3cc(F)ccc3F)no2)cc1 | 994
CCOc1ccccc1NC(=O)NCCc1nc2cccnc2n1C1CCCC1 | 782
O=C(Nc1cccc(Nc2ncc(Br)c(NCCc3cnc[nH]3)n2)c1)N1CCCC1 | 592
CCC1CCCCN1C(=O)c1cnc2nc(C)ccc2c1Nc1ccccc1OC (centres undefined) | 661
CCOC(=O)/C(=N\O)C1=CSC2=NNC(C)(C)N12 | 907
Cc1ccc(NC(=O)Cn2nc(N(C)C)c3ccccc3c2=O)c(F)c1 | 805
Cc1ccc(CNS(=O)(=O)c2cc3c4c(c2)CCC(=O)N4CCC3)cc1 | 868
